In US12661342B2, “Heteroaryl compounds and therapeutic uses thereof in conditions associated with the alteration of the activity of beta-glucocerebrosidase” (GT GAIN THERAPEUTICS SA, priority 2019, dated 2026):

Biological target: T1, β-glucocerebrosidase (Homo sapiens, UniProt P04062, L483P)
T1 construct: host or cells: human Gaucher disease patient fibroblasts GM08760A
T1 sequence (P04062 40-536 L483P): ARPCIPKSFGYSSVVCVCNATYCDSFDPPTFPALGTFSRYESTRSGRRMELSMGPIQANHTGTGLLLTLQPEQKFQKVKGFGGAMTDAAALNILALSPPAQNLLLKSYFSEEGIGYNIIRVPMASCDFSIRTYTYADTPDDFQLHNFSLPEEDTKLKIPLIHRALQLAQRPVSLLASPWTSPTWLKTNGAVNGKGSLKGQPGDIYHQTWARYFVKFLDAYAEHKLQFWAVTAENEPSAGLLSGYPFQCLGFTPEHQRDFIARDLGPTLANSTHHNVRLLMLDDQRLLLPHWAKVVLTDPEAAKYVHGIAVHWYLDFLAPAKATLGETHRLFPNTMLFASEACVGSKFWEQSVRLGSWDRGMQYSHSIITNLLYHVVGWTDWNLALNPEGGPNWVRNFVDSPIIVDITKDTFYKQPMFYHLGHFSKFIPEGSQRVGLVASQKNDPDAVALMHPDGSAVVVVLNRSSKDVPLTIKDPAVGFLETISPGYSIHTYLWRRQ
Experiment: Enhancement of β-glucocerebrosidase activity measured in Gaucher disease fibroblasts (4-MU-β-D-glucopyranoside substrate, intact cells)
Assay type: cell-based
Design: key: Increase in comparison with non-treated of >2.0 fold is shown as A; Increase in comparison with non-treated of >1.7-2.0 fold is shown as B; Increase in comparison with non-treated of 1.2-1.7 fold is shown as C; D means that no increase compared with non-treated cells was detected in this method
Conditions: GBA fibroblasts bearing L444P (GM08760A, homozygous p.L444P); compound at concentrations between 6 and 50 μM; 4 days incubation
Procedure, shortened: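 Patient fibroblasts homozygous for p.L444P (GM08760A), grown in DMEM/10% FBS and exposed to compound for 4 days. Intact cells then given 4-MU-β-D-glucopyranoside in 0.1 M acetate pH 4, 1 h, 37 °C; stopped at pH 10.7, 4-MU fluorescence ex 340/em 460. Value is fold increase over untreated cells; binned at 6–50 μM.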

SMILES | Range: increase in enzyme activity in comparison with non-treated cells (Enzyme activity assay for compounds of Examples 33-141) | Range: increase in enzyme activity in comparison with non-treated cells (Enzyme activity assay for exemplified compounds)
CN(C(=O)c1cc(N)cc(Nc2cccc(F)c2)n1)c1ccccc1 [Example 115, 6-(3-Fluorophenylamino)-4-amino-N-methyl-N-phenylpyridine-2-carboxamide] | C (Increase in comparison with non-treated of 1.2-1.7 fold is shown as C) | 
Cl.Nc1cc(Nc2cccc(F)c2)nc(C(=O)NC2Cc3ccccc3C2)c1 [Example 138, 4-Amino-N-(2,3-dihydro-1H-inden-2-yl)-6-((3-fluorophenyl)amino)picolinamide hydrochloride] | A (Increase in comparison with non-treated of >2.0 fold is shown as A) | 
COc1cccc(Nc2nc(N)c3c(n2)CN(Cc2ccccc2)CC3)c1 [Example 27, 7-Benzyl-N^2-(3-methoxyphenyl)-5,6,7,8-tetrahydropyrido[3,4-d]pyrimidine-2,4-diamine] |  | A (Increase in comparison with non-treated of >2.0 fold is shown as A)
Nc1cc(C(=O)N2CCN(c3ccccc3)CC2)nc(N[C@H]2CCCC[C@@H]2O)n1 [Example 14, (6-Amino-2-(((1S,2S)-2-hydroxycyclohexyl)amino)pyrimidin-4-yl)(4-phenylpiperazin-1-yl)methanone] |  | D
Cc1ccc(Nc2cc(N)nc(C(=O)NC3Cc4ccccc4C3)c2)c(O)c1 [Example 68, 6-Amino-N-(2,3-dihydro-1H-inden-2-yl)-4-((2-hydroxy-4-methylphenyl)amino)picolinamide] | C (Increase in comparison with non-treated of 1.2-1.7 fold is shown as C) | 
COc1cccc(Nc2nc(N)nc3c2CCN(Cc2ccccc2)C3)c1 [Example 23, 7-Benzyl-N4-(3-methoxyphenyl)-5,6,7,8-tetrahydropyrido[3,4-d]pyrimidine-2,4-diamine] |  | C (Increase in comparison with non-treated of 1.2-1.7 fold is shown as C)
Cc1cccc(Nc2cc(N)cc(C(=O)NC3Cc4ccccc4C3)n2)c1O [Example 91, 4-Amino-N-(2,3-dihydro-1H-inden-2-yl)-6-((2-hydroxy-3-methylphenyl)amino)picolinamide] | B (Increase in comparison with non-treated of >1.7-2.0 fold is shown as B) | 
COc1ccc(Nc2nc(N)nc3c2CCN(Cc2ccccc2)C3)cc1 [Example 26, 7-Benzyl-N4-(4-methoxyphenyl)-5,6,7,8-tetrahydropyrido[3,4-d]pyrimidine-2,4-diamine] |  | C (Increase in comparison with non-treated of 1.2-1.7 fold is shown as C)
Nc1cc(C(=O)N2CCc3ccccc32)nc(Nc2ccccc2O)n1 [Example 37, (6-Amino-2-((2-hydroxyphenyl)amino)pyrimidin-4-yl)(indolin-1-yl)methanone] | D | 
Nc1nc(Nc2ccccc2O)nc(C(=O)NC2CCc3ccccc3C2)n1 (centres unmarked) [Example 126, 4-Amino-6-((2-hydroxyphenyl)amino)-N-(1,2,3,4-tetrahydronaphthalen-2-yl)-1,3,5-triazine-2-carboxamide] | C (Increase in comparison with non-treated of 1.2-1.7 fold is shown as C) | 
Nc1nc(Nc2cccc(Br)c2)nc(C(=O)N2CCN(c3ccccc3)CC2)n1 [Example 16, (4-Amino-6-((3-bromophenyl)amino)-1,3,5-triazin-2-yl)(4-phenylpiperazin-1-yl)methanone] |  | C (Increase in comparison with non-treated of 1.2-1.7 fold is shown as C)
